From article PMC8754130, “A Peptide from Budding Yeast GAPDH Serves as a Promising Antifungal against Cryptococcus neoformans” (Microbiology Spectrum, 2022)
Values joined by “and” are separate entries in the source; they are usually repeats but may differ in a detail not shown here. Equal values may be shown once.

Columns and labels:
Cryptococcus neoformans = assay: organism not typed; conditions: 72 h, 37°C, three independent experiments
Description: (§1) The MIC of the peptide was determined using a standardized micro-broth dilution method with a panel of pathogenic yeast strains (C. albicans, […], C. neoformans, and C. gattii) and bacterial strains (Escherichia coli, Micrococcus luteus, Staphylococcus aureus, and Pseudomonas aeruginosa).
(§2) The value of the MIC was defined as the lowest concentration of drugs showing no yeast growth. The MIC was determined by three independent repeats, each repeat in quintuplicate.

Aspergillus fumigatus = assay: MIC, micro-broth dilution (CLSI M27-A4); assay type: cell-based; conditions: Aspergillus fumigatus (YJ407), laboratory stock; three independent experiments
Description: as §1, §2

[1] = test system: ergosterol in the cell membrane of C. neoformans (H99) cells; assay: Filipin III staining of membrane ergosterol; assay type: cell-based, Cryptococcus neoformans; conditions: 1 h
Excerpt: All fluorescent images were collected with the confocal microscope (Olympus IX81) at a magnification of ×100 (oil immersion). […] Images were taken using the same confocal microscope described above. […] The fluorescent images of mitochondria were acquired on the confocal microscope (Leica SP8). At least 200 cells per sample were categorized based on their tubular or fragmented mitochondria morphologies. To quantify the fluorescent staining of ergosterol by filipin III, H99 cells with different treatment were stained by filipin III as described ([37]). The fluorescent images were acquired by the IX81 confocal microscope described above. The ImageJ was used to measure the mean fluorescent intensity. The statistical analysis of fluorescent intensity was based on three independent experiments. In each experiment, at least 100 cells were counted in three different visual fields.

[2] = Calcein leakage assay, fungal membrane mimic; conditions: 4 μM; Tris buffer pH 7.4; fluorescence 10 min after addition; 100% = Triton X-100; three independent experiments
Description: These experiments were performed as previously described ([34]). Briefly, phospholipid vesicles were prepared from POPC: POPE (at a ratio of 1:4), POPC/POPE/Erg (at a ratio of 5:4:3), and POPC with 40% cholesterol, which mimics the cell membranes of bacterial, fungal, and mammalian cells, respectively. The resulting lipid film was suspended in Tris buffer (20 mM Tris, 100 mM NaCl, and 40 mM calcein, pH 7.4). Extravehicular buffer containing lipid vesicles with entrapped calcein was read in a fluorimeter using excitation at 490 nm and emission at 520 nm. […] The 10% Triton X-100 was used to disrupt lipid vesicles for obtaining the maximum fluorescence intensity.

C. neoformans H99 cells [3] = assay: Time-killing experiment (killing kinetics); assay type: cell-based, Cryptococcus neoformans; conditions: 2.5 μM (MIC of melittin), over 4 h, 37°C, RPMI 1640, CFU counting; three independent experiments
Description: The time-killing experiment was performed as described ([17]). C. neoformans H99 cells were cultured in RPMI 1640 medium overnight, and the concentration was adjusted to 3 × 10^7 colony-forming units (CFU)/mL. […] Aliquots were taken out to wash and serially diluted 1:10 in RPMI 1640 medium to final concentration of nearly 300 CFU/mL, and plate on the YPD medium at the corresponding time points. After incubating at 37°C for 48 h, colonies were counted to calculate the survival rate. The percentage of CFU of growth control was set as 100%. The percentage of recovering CFU on plates was plotted against time. The data were obtained from three independent experiments.

[4] = test system: C. neoformans protoplasts; assay: Protoplast rupture experiment (microscopy); assay type: cell-based, Cryptococcus neoformans; conditions: 2.5 μM, 2 h; three experiments
Excerpt: Many antimicrobial peptides form pores in cell membranes to kill cells ([38]). […] To test this hypothesis, C. neoformans protoplasts were adopted for cell rupture experiments. Because the cell walls were digested with enzymes, the unprotected protoplasts could be easily ruptured following peptide-induced pore formation within the cell membrane. Moreover, without the structural support of a cell wall, cell rupture could be clearly observed under the microscope.

[5] = test system: C. neoformans H99 protoplasts; assay: PI staining of protoplasts, flow cytometry; assay type: cell-based, Cryptococcus neoformans; conditions: 2.5 μM, 1 h; around 30,000 protoplasts per treatment; three independent experiments
Description: (§3) H99 cells were cultured in RPMI 1640 medium (Sigma, Shanghai) with 0.165 M MOPS (Sigma, Shanghai) overnight and diluted in fresh medium to an OD600 of 1. For the Annexin V-PI assay, the yeast protoplast preparation kit (BestBio, Shanghai) was used to prepare the protoplasts. […] The TUNEL assay was performed by using the Apoptosis Detection Kit (Yeasen, Shanghai) according to the manufacturer’s instructions. For JC-10 staining, H99 cells were stained by 30 μM JC-10 (Yeasen, Shanghai) and 0.02% Pluronic F-127(Beyotime, Shanghai) at 37°C for 30 min. The intracellular ROS was stained by the incubation with 5 μM H2DCFDA(MCE, Shanghai) at 37°C for 30 min. The stained samples were measured by BD FACSCalibur as described ([58]). The data were analyzed by FlowjoX. All experiments were repeated three times independently.

[6] = test system: C. neoformans H99 protoplasts; assay: Annexin V staining (phosphatidylserine exposure), flow cytometry; assay type: cell-based, Cryptococcus neoformans; conditions: 2.5 μM, 1 h; three independent experiments
Description: as §3

C. neoformans H99 cells [7] = assay: JC-10 mitochondrial membrane potential assay; assay type: cell-based, Cryptococcus neoformans; conditions: 8 μM, 37°C, 2 h; JC-10, flow cytometry; three experiments
Description: as §3

[8] = strain JEC21, RPMI 1640 + 0.165 M MOPS, lowest concentration showing no yeast growth
[9] = Cryptococcus neoformans, fzc9Δ, FLC-resistant strain derived from H99, RPMI 1640 + 0.165 M MOPS
[10] = Cryptococcus neoformans, gat5Δ, FLC-resistant strain derived from H99, RPMI 1640 + 0.165 M MOPS
[11] = Cryptococcus neoformans, liv4Δ, FLC-resistant strain derived from H99, RPMI 1640 + 0.165 M MOPS

Compound: C[C@@H]1[C@H](O)[C@@H](C)/C=C/C=C/C=C/C=C/C=C/C=C/C=C/[C@H](O[C@@H]2O[C@H](C)[C@@H](O)[C@H](N)[C@@H]2O)C[C@@H]2O[C@](O)(C[C@@H](O)C[C@@H](O)[C@H](O)CC[C@@H](O)C[C@@H](O)CC(=O)O[C@H]1C)C[C@H](O)[C@H]2C(=O)O [AmB, amphotericin B]
- MIC (Cryptococcus neoformans; [8]): 0.4 µM
- MIC (Cryptococcus neoformans; Cryptococcus neoformans, atf1Δ, AmB-resistant strain derived from H99, RPMI 1640 + 0.165 M MOPS): > 2.2 µM
- MIC (Cryptococcus neoformans; [9]): 1.1 µM and 1 µg/mL
- MIC (Cryptococcus neoformans; Cryptococcus neoformans, fzc51Δ, AmB-resistant strain derived from H99, RPMI 1640 + 0.165 M MOPS): > 2.2 µM and > 2 µg/mL
- MIC (Cryptococcus neoformans; [10]): 1.1 µM and 1 µg/mL
- MIC (Cryptococcus neoformans; [11]): 1.1 µM and 1 µg/mL
- MIC (Cryptococcus neoformans; Cryptococcus neoformans, strain H99, RPMI 1640 + 0.165 M MOPS): 1.1 µM and 1 µg/mL
- MIC (Cryptococcus neoformans; atf1Δ, AmB-resistant strain derived from H99, RPMI 1640 + 0.165 M MOPS): > 2 µg/mL
- MIC (Aspergillus fumigatus): 0.4 µM and 0.37 µg/mL
- filipin III signal ([1]; 1.1 μM): a decreased level of filipin III signal

Compound: OC(Cn1cncn1)(Cn1cncn1)c1ccc(F)cc1F [FLC, fluconazole]
- MIC (Cryptococcus neoformans; [8]): 6.5 µM
- MIC (Cryptococcus neoformans; [9]): > 26 µM
- MIC (Cryptococcus neoformans; [10]): > 26 µM
- MIC (Cryptococcus neoformans; [11]): > 26 µM
- MIC (Cryptococcus neoformans; fzc9Δ, FLC-resistant strain derived from H99, RPMI 1640 + 0.165 M MOPS): > 8 µg/mL
- MIC (Cryptococcus neoformans; gat5Δ, FLC-resistant strain derived from H99, RPMI 1640 + 0.165 M MOPS): > 8 µg/mL
- MIC (Cryptococcus neoformans; liv4Δ, FLC-resistant strain derived from H99, RPMI 1640 + 0.165 M MOPS): > 8 µg/mL
- calcein leakage [2]: did not induce calcein leakage

Compound: CC[C@H](C)[C@H](NC(=O)CN)C(=O)NCC(=O)N[C@@H](C)C(=O)N[C@H](C(=O)N[C@@H](CC(C)C)C(=O)N[C@@H](CCCCN)C(=O)N[C@H](C(=O)N[C@@H](CC(C)C)C(=O)N[C@H](C(=O)N[C@H](C(=O)NCC(=O)N[C@@H](CC(C)C)C(=O)N1CCC[C@H]1C(=O)N[C@@H](C)C(=O)N[C@@H](CC(C)C)C(=O)N[C@H](C(=O)N[C@@H](CO)C(=O)N[C@@H](Cc1c[nH]c2ccccc12)C(=O)N[C@H](C(=O)N[C@@H](CCCCN)C(=O)N[C@@H](CCCNC(=N)N)C(=O)N[C@@H](CCCCN)C(=O)N[C@@H](CCCNC(=N)N)C(=O)N[C@@H](CCC(N)=O)C(=O)N[C@@H](CCC(N)=O)C(N)=O)[C@@H](C)CC)[C@@H](C)CC)[C@@H](C)O)[C@@H](C)O)C(C)C)C(C)C [melittin]
- MIC (Cryptococcus neoformans; strain H99, RPMI 1640 + 0.165 M MOPS): 2.5 μM and 7.12 μg/mL
- cells killed (C. neoformans H99 cells [3]): ~70%
- protoplasts ruptured [4]: ~80%
- PI-positive protoplasts [5]: ~70%
- phosphatidylserine exposure (annexin V) [6]: almost no phosphatidylserine exposure

Compound: C[C@@H]1C/C=C/C=C/C=C/C=C/[C@H](O[C@@H]2O[C@H](C)[C@@H](O)[C@H](N)[C@@H]2O)C[C@@H]2O[C@](O)(C[C@@H](O)C[C@H]3O[C@@H]3/C=C/C(=O)O1)C[C@H](O)[C@H]2C(=O)O [natamycin]
- filipin III signal ([1]; 15 μM): a decreased level of filipin III signal

Compound: IRIAINGFGRIGRPPPRPPPQRKDIEVVA [control peptide]
- calcein leakage [2]: did not induce calcein leakage
- cells that lost their mitochondrial membrane potential (C. neoformans H99 cells [7]): ~5%
